Test results as given in a melting point compilation (Tetko et al.; mined from patent text by program, amines drawn as free bases though some values may be those of a salt).

| SMILES | melting point [°C] |
| --- | --- |
| COC(=O)CC(SC(C)=O)C(CC(C)C)C(=O)NC1CCCCCCCCCCNC1=O (stereo not given) | 213 to 216 |
| COc1ccc(C=C2c3ccccc3C(=NOCC(=O)O)c3ccccc32)cc1O | 232 to 234 |
| CCCc1c(O)ccc2c(=O)cc(C(=O)OC)oc12 | 222 to 224 |
| Cc1[nH]c(=O)ccc1C(=O)c1ccco1 | 258 to 260 |
| O=C1NC(=O)C(=Cc2ccc(OCCN3C(=O)SC(c4ccccc4)C3=O)cc2)S1 (stereo not given) | 120 |
| Cn1c(C(F)(F)F)cc(=O)n(-c2ccc3snc(-c4nc5ccccc5[nH]c4=O)c3c2)c1=O | > 250 |
| CCSC1(Sc2ccccc2)CCC2C3CCC4=CC(=O)C=CC4(C)C3(F)C(OC(C)=O)CC21C (stereo not given) | 145 to 148 |
| CC(=O)Oc1cc(/C=C/c2ccc(OC(=O)C(C)(C)Oc3ccc(C(=O)c4ccc(Cl)cc4)cc3)cc2)cc(OC(C)=O)c1 | 112 to 113 |
| COc1ccc(-c2cc(=O)n(CCN3CCOCC3)nc2-c2ccc(OC)cc2)cc1 | 145 to 146 |
| CCOc1c(C)cc2c(c1C)C1(C)Cc3ccccc3C1=N2 (stereo not given) | 164 |
| Cc1cccc(NC(=O)NCC(=O)N(c2ccccc2)c2cccc(Cl)c2)c1 | 184 |
| CCC(C)CNC1=NS(=O)(=O)c2sc(Cl)cc2N1 (stereo not given) | 232 to 234 |
| COc1ccc(S(=O)(=O)N(CCO)c2ccccc2/C=C/c2ccncc2)cc1 | 198 to 200 |
| COC(=O)c1cc2c(OC[C@@H](O)CN3CCC(c4ccc5ccccc5c4)CC3)cccc2o1 | 118 to 119 |
| COc1ccc(CNC(=O)c2cc3c(=O)n(CCS(=O)(=O)c4ccccc4)c(=O)n(C)c3s2)cc1 | 118 to 121 |
| COc1ccc(-c2nc(SCCO)sc2-c2ccc(OC)cc2)cc1 | 83 to 84 |
| CCC(CC)NC(=O)c1ccc(-c2scc(-c3ccccc3Cl)c2CC(=O)NC(=N)NCCCO)cc1 | 109 to 110 |
| CC(=O)Nc1nc(N(C(C)=O)C(C)=O)c(CCC=O)c(=O)[nH]1 | 164 to 168 |
| COc1cc2c(cc1OC)CN(CCCCNC(=O)c1cc(Br)cc(OC)c1OCCF)CC2 | 127 to 129 |
| CC1CCN(C(=O)Oc2ccc(Oc3ccc(Cl)cc3)cc2)CC1 | 72 to 75 |
| OCCC1(CCO)c2ccccc2Oc2ccccc21 | 144 to 145 |
| COc1ccc(OCC2CC(Cn3ccnc3)(c3ccc4ccccc4c3)N(C)O2)cc1 (stereo not given) | 143 to 145 |
| O=S(=O)(Nc1cccc(CCOCc2ccc(-c3ccc(C(F)(F)F)cc3)cc2)c1)C(F)(F)F | 98 to 100 |
| COC(=O)c1ccc(OCCN2CCN(c3cc(Cl)nnc3Cl)CC2)nc1 | 145 to 146 |

| SMILES | melting point [°C] |
| --- | --- |
| CN(C)S(=O)(=O)c1ccccc1S(=O)(=O)NC(=O)Nc1nc(F)cc(OC(F)(F)F)n1 | 167 to 169 |
| CNc1c(CCO)cc(N)c([N+](=O)[O-])c1CCO | 99 |
| Nc1cc(=O)n(Cc2cccc(Br)c2)[nH]1 | 160 |
| CN1C[C@@H](C(=O)OCc2ccccc2)NC1=O | 94 to 95 |
| Nc1cc(-c2c[nH]cn2)ccn1 | 193 to 196 |
| CCCCC(Br)C(=O)c1cc(NC(C)=O)ccc1O (stereo not given) | 137 to 138 |
| CC(=O)NC[C@H]1CN(c2ccc(C(=O)c3cnc4ccccn34)c(F)c2)C(=O)O1 | 196 to 198 |
| CCC(CC)N(Cc1ccc(C(=O)OC)cc1)S(=O)(=O)c1ccc(F)cc1 | 78 to 80 |
| CCCCCc1nc(-c2ncn3c2COC(=O)c2c(Cl)cccc2-3)no1 | 110 to 112 |
| Cc1nc2c(Cl)cc(Cl)cc2c(=O)n1C1CCC(=O)NC1=O (stereo not given) | 238 to 240 |
| O=C(NCCC1CCCCC1)c1cc(-c2ccc(Cl)c(C(=O)O)n2)ccc1Cl | 116 to 120 |
| CCOC(=O)c1cccc(-c2cc3c(Cl)ncnc3[nH]2)c1 | > 250 |
| CC(C)(C)OC(=O)NC1CN(C(C(=O)OC(c2ccccc2)c2ccccc2)c2ccc(OC(=O)OC(C)(C)C)cc2)C1=O (stereo not given) | 155 to 157 |
| NCCSc1cc(N)c([N+](=O)[O-])cc1N | 149 |
| COc1ccc(Cn2c(=O)c(=NNc3ccccc3)c(=O)n(CCC(C)C)c3ccccc32)cc1 | 189 to 191 |
| O=C(CC1CCN(Cc2ccccc2)CC1)c1ccc(CO)cc1 | 154 to 155 |
| Cc1nc(N2C[C@@H](O)CC2=O)sc1C(=O)NCc1ccccc1 | 203 to 204 |
| COC(=O)CC(N)c1cc2ccccc2nc1Cl (stereo not given) | 103 to 106 |
| CCCCCCCCCCCCCCCCCCOc1c(OCC(CC)CCCC)ccc2c1C(=O)c1ccccc1C2=O (stereo not given) | 61 to 68 |
| CCOC(=O)C(C)(C)c1ccc(C2=NC(C)(C)Cc3cc(OC)c4c(c32)CC(C)(C)O4)cc1 | 150 to 151 |
| OC(Cn1cncn1)(CC(Cl)(Cl)Cl)c1cc(Cl)cc(Cl)c1 (stereo not given) | 186 |
| CCN(CC)CCNC(=O)c1cc(Cl)c(N)cc1OCC(C)O (stereo not given) | 149 to 150 |
| CN(C)C(=O)NCc1cccc2c1C(=O)N(C1CCC(=O)NC1=O)C2=O (stereo not given) | 143 to 145 |
| COc1ccc(S(=O)(=O)C2(C(=O)O)CCN(Cc3cccc(OC)c3)CC2)cc1 | 130 |

| SMILES | melting point [°C] |
| --- | --- |
| O=C(Nc1ccc(C(F)(F)F)cc1)NC1CCN(S(=O)(=O)c2ccc(C(=O)O)cc2)CC1 | 188 to 192 |
| CC(=O)Oc1ccc(C(CC(=O)O)CC(=O)OCC(=O)C2CCC3C4CCC5=CC(=O)CCC5(C)C4C4CC23C(O)O4)cc1 (stereo not given) | 145 to 160 |
| O=C(NCCSCc1cccc([N+](=O)[O-])c1)c1c(Cl)cccc1Cl | 76 to 78 |
| O=C1CCCCCCCCCCC(=O)OCCC1 | 33 |
| CCC(C)=NNC(=O)c1cccc2nnsc12 | 159 to 162 |
| O=C(O)c1cccc(N(CCc2ccccc2)c2nnc(-c3cccc(Oc4cccc(C(F)(F)F)c4)c3)s2)c1 | 92 to 93 |
| CCc1c(C(=O)C(C)C)c2ccc(-c3nnn[nH]3)cc2n1Cc1ccccc1Cl | 160 to 163 |
| COc1ccc(C(=O)Nc2ccccc2)cc1 | 156 to 158 |
| COCc1nc2c(N)cc(Br)cc2n1C | 138 to 140 |
| COC(=O)c1ccc(=O)n(CCCNC(=O)c2ccccn2)c1 | 115 to 116 |
| COc1ccccc1-c1n[nH]c(-c2ccccc2C)n1 | 160 to 161 |
| CN1Cc2c(C#N)ncn2-c2ccc(F)cc2C1=O | 236 to 237 |
| CCCCOCCOc1ccc(-c2ccc3c(c2)C=C(C(=O)Nc2ccc(C(O)c4ccccn4)c(OCC(F)(F)F)c2)CCN3C(=O)C(F)(F)F)cc1 (stereo not given) | 178 to 181 |
| O=Cc1csc(N2CCSCC2)n1 | 69 to 71 |
| CCOC(=O)c1ncn2c1c(C)nc1ccccc12 | 192 to 193 |
| COc1ccc(C(=O)Nc2ccncc2)c2c3cc(Cl)ccc3n(Cc3ccc(F)cc3)c12 | 241 to 245 |
| CCOC(=O)C(=CNC1CC1)C(=O)c1c(F)c(C)c(F)c(F)c1[N+](=O)[O-] | 115 to 116 |
| C=CCc1c(O)ccc(C(=O)OC)c1O | 65 to 66 |
| CC(C)C(=O)N[C@H]1N=C(c2ccccc2)c2ccccc2N(C)C1=O | 87 to 107 |
| CCOC(=O)c1nc2n(c(=O)c1O)CCN2CCO | 155 to 156 |
| Nc1cc2c(Nc3ccc(F)c(Cl)c3)ncnc2cc1OCC1CC1 | 208 |
| COc1cccc(NC(=O)NCC2(c3ccccc3)CCCCC2)c1 | 120 to 122 |
